Experimental data taken from patent publication EP4631490A1, “ACTIVATOR AND SKIN CONDITION IMPROVING AGENT” (Nippon Shokubai Co., Ltd., priority 2022, dated 2024).

What was measured:
[1] = Measurement of critical micelle concentration (surface tension, platinum suspension plate method); type: physicochemical; details: critical micelle concentration from surface tension measurement
Procedure: A highly functional surface tensiometer (DY-500 (available from Kyowa Interface Science Co., Ltd.) was used to perform surface tension measurement by a platinum suspension plate method, and critical micelle concentrations (CMCs) of the STL C14, the STL C16, the STL C18, sodium lauryl sulfate, sodium deoxycholate, and sodium caprylate were calculated in accordance with a common method. The results are described in Table 4.

[2] = Foam property evaluation (dynamic foam analyzer); type: physicochemical; details: 0.5% aqueous solution, pH 8.0, water hardness 20°dH, 25°C; for Creaminess of foam Bubble area after 20 seconds: 20 seconds after stirring was stopped; for Creaminess of foam Bubble area after 600 seconds: 600 seconds after stirring was stopped; for Foam retention evaluation Foam change rate: smaller = better foam retention
Procedure: Thereafter, an average bubble area of foams was determined based on the images, and creaminess (foamability) of the foams was evaluated according to the following criteria. Note that the creaminess of the foams is characterized by having a small final bubble diameter (measured as average bubble area). The foams generated from the aqueous solutions containing the STL C14, the STL C16, or the STL C18 had small bubble areas, and thus it was considered that creamy foams could be formed. • ⊚ (good): The bubble area was 20000 µm^2 or less. • ∘ (passed): The bubble area was 20001 µm^2 or more and 30000 µm^2 or less. • Δ (slightly poor): The bubble area was 30001 µm^2 or more and 40000 µm^2 or less. • × (poor): The bubble area was 40001 µm^2 or more. A foam change rate was calculated using the following equation. It can be determined that the smaller the foam change rate is, the better the foam retention is, in other words, the better the foaming durability is. […]

L929 mouse fibroblasts = details: values of L. Vian et al., Toxicol in vitro, 9(2), 185-190, 1995; cited from earlier work
Zein powder = assay: Protein denaturation test (dissolution of Zein powder); details: 0.5% aqueous solution, pH 8.0; 0.03 g Zein powder in 10 mL; room temperature, 2 hours; index of skin irritation
Procedure: 0.03 g of Zein powder (FUJIFILM Wako Pure Chemical Corporation) was added to the aqueous solutions of the STL. After stirring at room temperature and 1200 rpm for 2 hours, the Zein powder-added solutions were transferred to centrifuge tubes, respectively, and centrifuged at 6200 rpm for 10 seconds to precipitate and remove undissolved zein powder. The protein concentrations in the solutions were measured using a microvolume spectrophotometer NanoDrop (NanoDrop Technologies).
The protein denaturation test was performed in the same manner using sodium lauryl sulfate, sodium deoxycholate, and sodium caprylate.

Row | Molecule | Surface activating ability evaluation CMC [1] [mM] | Creaminess of foam Bubble area after 20 seconds [2] | Creaminess of foam Bubble area after 600 seconds [2] | Foam retention evaluation Foam change rate [2] [%] | Cytotoxicity evaluation IC50 (L929 mouse fibroblasts) [ppm] | Protein denaturation ability evaluation Protein dissolution concentration (Zein powder) [µg/mL]
1 | CCCCCCCC(=O)[O-].[Na+] [Sodium caprylate, sodium caprylate] | 300 | ○ | Δ (Δ (slightly poor): The bubble area was 30001 µm^2 or more and 40000 µm^2 or less.) | 1.09 | 887 | 
2 | CCCCCCCCCCCCOS(=O)(=O)[O-].[Na+] [Sodium lauryl sulfate, sodium lauryl sulfate] | 8 | ⊚ (⊚ (good): The bubble area was 20000 µm^2 or less.) | Δ (Δ (slightly poor): The bubble area was 30001 µm^2 or more and 40000 µm^2 or less.) | 2.81 | 86 | 
3 | sodium deoxycholate | 6 | ⊚ (⊚ (good): The bubble area was 20000 µm^2 or less.) | × (× (poor): The bubble area was 40001 µm^2 or more.) | 2.62 | 90 | 430
